SMILES strings stand for the structures. Bounds are passed on as bounds.

For orientation: IC50 means the concentration that gives 50% inhibition. A low value points to inhibition by little substance.

The assay in a line: Inhibition of Yersinia pestis Dam using oligonucleotide 1 as substrate after 2000 to 3000 sec by micro plate reader based real-time break-light assay.
Compound `Nc1ncnc2c1ncn2[C@@H]1O[C@H](CN(CCCc2c[nH]c3ccccc23)CC[C@H](N)C(=O)O)[C@@H](O)[C@H]1O` gave an IC50 of 13.1 µM. To `Nc1ncnc2c1ncn2[C@@H]1O[C@H](CSCC[C@H](N)C(=O)O)[C@@H](O)[C@H]1O` [S-ADENOSYLHOMOCYSTEINE] belongs 11.9 µM; to `Nc1ncnc2c1ncn2[C@@H]1O[C@H](CN(CCc2c[nH]c3ccccc23)CC[C@H](N)C(=O)O)[C@@H](O)[C@H]1O`, 12.3 µM. The compound `Nc1ncnc2c1ncn2[C@@H]1O[C@H](CNCC[C@H](N)C(=O)O)[C@@H](O)[C@H]1O` had an IC50 of 84 µM. To `Nc1ncnc2c1ncn2[C@@H]1O[C@H](CN(CC[C@H](N)C(=O)O)Cc2ccccn2)[C@@H](O)[C@H]1O` belongs above 250 µM; to `Nc1ncnc2c1ncn2[C@@H]1O[C@H](CN(CCc2csc3ccccc23)CC[C@H](N)C(=O)O)[C@@H](O)[C@H]1O`, 28.9 µM; to `Nc1ncnc2c1ncn2[C@@H]1O[C@H](CN(CCCc2ccccn2)CC[C@H](N)C(=O)O)[C@@H](O)[C@H]1O`, above 250 µM.

As for `Nc1ncnc2c1ncn2[C@@H]1O[C@H](CN(CCc2coc3ccccc23)CC[C@H](N)C(=O)O)[C@@H](O)[C@H]1O`, the IC50 came to 39.2 µM. `Nc1ncnc2c1ncn2[C@@H]1O[C@H](CN(CCc2cccc3[nH]ccc23)CC[C@H](N)C(=O)O)[C@@H](O)[C@H]1O` had an IC50 of 31.3 µM.

The values are drawn from ChEMBL document CHEMBL2016468, “Development of rationally designed DNA N6 adenine methyltransferase inhibitors” (Bioorg Med Chem Lett, 2012).
